The target of assay [1] is HIV-1 protease (Human immunodeficiency virus type 1 group M subtype B (isolate HXB2) (HIV-1), UniProt P04585). The experiment in a line: HIV-1 protease enzyme inhibitory assay (protocol of Toth and Marshall). The class given is biochemical. The conditions noted are these: for potency compared to 3i: vs 3i; for fold reduction in enzymatic inhibitory potency with respect to 3d: vs 3d. The text has this: In another embodiment, inhibitors described herein contain a (R)-hydroxyethylamine sulfonamide isostere with a p-methoxysulfonamide as the P2′-ligand and various designed cyclic ethers and polyethers as the P2-ligands. In another embodiment, assays are described herein for evaluating compounds. Illustrative inhibitors described herein are initially evaluated in an enzyme inhibitory assay utilizing a protocol described by Toth and Marshall (Toth, M. V.; Marshall, G. R. A simple, continuous fluorometric assay for HIV protease. Int. J. Pep. Protein Res. 1990, 36, 544-550). […]

For assay [2], the system named is HIV-1-LAI. Description: Antiviral assay in MT-2 cells, inhibition of HIV-1-elicited cytopathic effect. The class given is cell-based. The conditions noted are these: Human immunodeficiency virus 1, T-lymphoid, MT-2 human T-lymphoid cells exposed to HIV-1-LAI.
[3] abbreviates: Table 1, mean values of at least four determinations.
[4] abbreviates: Table 3, means of at least two experiments.

The compound `COc1ccc(S(=O)(=O)N(CC(C)C)C[C@@H](O)[C@H](Cc2ccccc2)NC(=O)O[C@H]2CCCOCOC2)cc1` [Inhibitor 3a, (1S,2R)-{1-Benzyl-2-hydroxy-3-[isobutyl(4-methoxybenzenesulfonyl)amino]propyl}carbamic acid (1S)-3,5-dioxacyclooctan-1-yl ester] returned an inhibition constant (Ki) in assay [1] (setting [3]) of 0.15 ± 0.019 nM.

Consider `COc1ccc(S(=O)(=O)N(CC(C)C)C[C@@H](O)[C@H](Cc2ccccc2)NC(=O)OC2COCCOCCOCCOC2)cc1` [Inhibitor 3j, (1S,2R)-{1-Benzyl-2-hydroxy-3-[isobutyl(4-methoxybenzenesulfonyl)amino]propyl}carbamic acid 3,6,9,12-tetraoxacyclotridecan-1-yl ester], for which the Ki in assay [1] (setting [3]) worked out at 33 ± 1.9 nM.

As to `COc1ccc(S(=O)(=O)N(CC(C)C)C[C@@H](O)[C@H](Cc2ccccc2)NC(=O)OC2COCCS(=O)(=O)CCOC2)cc1` [Inhibitor 3l, (1S,2R)-{1-Benzyl-2-hydroxy-3-[isobutyl(4-methoxybenzenesulfonyl)amino]propyl}carbamic acid 3,9-dioxa-6-thiacyclodecan-1-yl 6,6-dioxide ester], in assay [1] (setting [3]), the affinity corresponds to a Ki of 1.9 ± 0.2 nM. For the same compound, the “potency compared to 3i” value in assay [1] turned out to be 9 fold. Besides, the IC50 in assay [2] is over 1000 nM.

In assay [1] (setting [3]), `COc1ccc(S(=O)(=O)N(CC(C)C)C[C@@H](O)[C@H](Cc2ccccc2)NC(=O)OC2COCCOCOCCOC2)cc1` [Inhibitor 3k, (1S,2R)-{1-Benzyl-2-hydroxy-3-[isobutyl(4-methoxybenzenesulfonyl)amino]propyl}carbamic acid 3,6,8,11-tetraoxacyclododecan-1-yl ester] had a Ki of 6.3 ± 0.57 nM. The “potency compared to 3i” value in assay [1] was “more than 2 fold”. Besides, in assay [1] (vs 3j), the “fold potency enhancement compared to inhibitor 3j” value is listed as 5 fold. Moreover, the IC50 in assay [2] is over 1000 nM.

In turn, `COc1ccc(S(=O)(=O)N(CC(C)C)C[C@@H](O)[C@H](Cc2ccccc2)NC(=O)O[C@@H]2CCCCOC2)cc1` [Inhibitor 3e, (1S,2R)-{1-Benzyl-2-hydroxy-3-[isobutyl(4-methoxybenzenesulfonyl)amino]propyl}carbamic acid (R)-oxepan-3-yl ester] had a Ki in assay [1] (setting [3]) of 0.81 ± 0.12 nM. The “fold reduction in enzymatic inhibitory potency with respect to 3d” value in assay [1] is about 30 fold.

On to `COc1ccc(S(=O)(=O)N(CC(C)C)C[C@@H](O)[C@H](Cc2ccccc2)NC(=O)O[C@H]2CCCOCC2)cc1` [Inhibitor 3f, (1S,2R)-{1-Benzyl-2-hydroxy-3-[isobutyl(4-methoxybenzenesulfonyl)amino]propyl}carbamic acid (S)-oxepan-4-yl ester], for which the Ki in assay [1] (setting [3]) was 0.74 ± 0.15 nM. Moreover, the “fold reduction in enzymatic inhibitory potency with respect to 3d” value in assay [1] was about 30 fold.

In assay [1] (setting [3]), `COc1ccc(S(=O)(=O)N(CC(C)C)C[C@@H](O)[C@H](Cc2ccccc2)NC(=O)OC2COCCN(C)CCOC2)cc1` [Inhibitor 3m, (1S,2R)-{1-Benzyl-2-hydroxy-3-[isobutyl(4-methoxybenzenesulfonyl)amino]propyl}carbamic acid N-methyl-1,7-dioxa-4-azocyclodecan-9-yl ester] had an inhibition constant (Ki) of 19 ± 0.76 nM. In assay [1], the “potency compared to 3i” value is listed as “no change in inhibitory activity”. For the same compound, the IC50 in assay [2] was over 1000 nM.

In assay [1] (setting [3]), `COc1ccc(S(=O)(=O)N(CC(C)C)C[C@@H](O)[C@H](Cc2ccccc2)NC(=O)OC2CCCCCC2)cc1` [Inhibitor 3g, (1S,2R)-{1-Benzyl-2-hydroxy-3-[isobutyl(4-methoxybenzenesulfonyl)amino]propyl}carbamic acid Cycloheptanyl ester] gave a Ki of 27 ± 0.81 nM.

`COc1ccc(S(=O)(=O)N(CC(C)C)C[C@@H](O)[C@H](Cc2ccccc2)NC(=O)O[C@H]2CC3OCO[C@@H]3C2)cc1` (stereo partly drawn) [Inhibitor 126, (1′S,2′R)-{1′-Benzyl-2′-hydroxy-3′-[isobutyl(4-methoxybenzenesulfonyl)amino]propyl} carbamic acid (1β,2β,4α)-1,2-(methylenedioxy)cyclopent-4-yl ester] yielded a Ki in assay [1] (setting [4]) of 0.4 ± 0.04 nM. Further, in assay [1] (vs 102), the “fold less potent than the syn isomer 102” value is 3.5 fold.

`COc1ccc(S(=O)(=O)N(CC(C)C)C[C@@H](O)[C@H](Cc2ccccc2)NC(=O)O[C@H]2CC3OCCO[C@@H]3C2)cc1` (stereo partly drawn) [Inhibitor 129, (1′S,2′R)-{1′-Benzyl-2′-hydroxy-3′-[isobutyl(4-methoxybenzenesulfonyl)amino]propyl} carbamic acid (1β,2β,4α)-1,2-(ethylenedioxy)cyclopent-4-yl ester] had a Ki in assay [1] (setting [4]) of 0.5 ± 0.04 nM.

Values taken from patent publication US8501961B2, “HIV protease inhibitors and methods for using” (priority 2008, dated 2013).
